Laboratory results published in patent US5739129A, “CCK or gastrin modulating 5-heterocyclic-1, 5 benzodiazepines” (Glaxo Wellcome Inc., priority 1994, dated 1998).

tested on: guinea pig gall bladder; assay: Guinea pig gall bladder assay (contraction of isolated gallbladder rings); type: cell-based; conditions: Cavia porcellus, compounds tested at 1 μM, minimum of three determinations, read-out: Contraction (% sulfated CCK-8 maximal response)
Text: GUINEA PIG GALL BLADDER ASSAY Tissue Preparation: Gallbladders were removed from guinea pigs sacrificed by cervical dislocation. The isolated gallbladders were cleaned of adherent connective tissue and cut into two rings from each animal (2-4 mm in length). The rings were subsequently suspended in organ chambers containing a physiological salt solution of the following composition (mM): NaCl (118.4); KCl (4.7); MgSO4 ×H2 O (1.2); CaCl2 ×2H2 O (2.5); […] (1.2); NaHCO3 (25) and dextrose (11.1). The bathing solution was maintained at 37° C. and aerated with 95% O2 /5%CO2. Tissues were connected via gold chains and stainless steel mounting wires to isometric force displacement transducers (Grass, Model FT03 D). Responses were then recorded on a polygraph (Grass, Model 7E). […] Assay: Rings were gradually stretched (over a 120 min. period) to a basal resting tension of 1 gm which was maintained throughout the experiment. During the basal tension adjustment period, the rings were exposed to acetylcholine (ACH, 10^-6 M) four times to verify tissue contractility. The tissues were then exposed to a submaximal dose of sulfated CCK-8 (Sigma, 3×10^-9 M). After obtaining a stable response, the tissues were washed out 3 times rapidly and every 5 to 10 minutes for 1 hour to reestablish a stable baseline. Compounds were dissolved in dimethylsulfoxide (DMSO) then diluted with water and assayed via a cumulative concentration-response curve to test compound (10^-11 to 3×10^-6 M) followed by a concentration-response curve to sulfated CCK-8 (10^-10 to 10^-6 M) in the presence of the highest dose of the test compound. As a final test, ACH (10 mM) was added to induce maximal contraction. A minimum of three determinations of activity were made for each test compound. The compounds were tested at a concentration of 1 μM and the results expressed as % sulfated CCK-8 maximal response.

For `COc1ccc(N(C(=O)CN2C(=O)C(NC(=O)c3cc4ccccc4[nH]3)C(=O)N(c3cccnc3)c3ccccc32)C(C)C)cc1` (single isomer, unassigned) [Example 14, (+) or (-) 1H-Indole-2-carboxylic acid [I-[isopropyl-(4-methoxyphenyl)-carbamoylmethyl]-2,4-dioxo-5-pyridin-3-yl-2,3,4,5-tetrahydro-1H-benzo[b][1,4]diazepin-3-yl]amide], which Emax at 1 µM is on record?
The Emax at 1 µM was 84%.

For `COc1ccc(N(C(=O)CN2C(=O)C(NC(=O)c3cc4ccccc4[nH]3)C(=O)N(c3ncccn3)c3ccccc32)C(C)C)cc1` (stereo not shown) [Example 5, 1H-Indole-2-carboxylic acid {1-[Isopropyl-(4-methoxy-phenyl)-carbamoylmethyl]-2,4-dioxo-5-pyrimidin-2-yl-2,3,4,5-tetrahydro-1H-benzo[b][1,4]diazepin-3-yl}-amide], which Emax at 1 µM is on record?
Its Emax at 1 µM is 51%.

With `COc1ccc(N(C(=O)CN2C(=O)C(NC(=O)c3cc4ccccc4[nH]3)C(=O)N(c3c(C)nn(C)c3C)c3ccccc32)C(C)C)cc1` (stereo not shown) [Example 6, 1H-Indole-2-carboxylic acid [1-[isopropyl-(4-methoxy-phenyl)-carbamoylmethyl]-2,4-dioxo-5-(1,3,5-trimethyl-1H-pyrazol-4-yl)-2,3,4,5-tetrahydro-1H-benzo[b][1,4]diazepin-3-yl]-amide] as the compound, how does the Emax at 1 µM read?
Its Emax at 1 µM is 32%.

Which Emax at 1 µM does the source give for `COc1ccc(N(C(=O)CN2C(=O)C(NC(=O)Nc3ccccc3)C(=O)N(c3cccnc3)c3ccccc32)C(C)C)cc1` (stereo not shown) [Example 8, 2-[2,4-dioxo-3-(3-phenyl-ureido)-5-pyridin-3-yl-2,3,4,5-tetrahydrobenzo[b][1,4]diazepin-1-yl]-N-isopropyl-N-(4-methoxy-phenyl) acetamide] here?
Its Emax at 1 µM is 81%.

How did the Emax at 1 µM turn out when `COc1ccc(N(C(=O)CN2C(=O)C(NC(=O)Nc3cccc(C(=O)O)c3)C(=O)N(c3cccnc3)c3ccccc32)C(C)C)cc1` (stereo not shown) [Example 10, 3-(3-{1-[isopropyl-(4-methoxy-phenyl)-carbamoylmethyl]-2,4-dioxo-5-pyridin-3-yl-2,3,4,5-tetrahydro-1H-benzo[b][1,4]diazepin-3-yl}-ureido)-benzoic acid] was run?
Its Emax at 1 µM is 83%.

With `COc1ccc(N(C(=O)CN2C(=O)C(NC(=O)Nc3cccc(C(=O)O)c3)C(=O)N(c3cccnc3)c3cc(F)ccc32)C(C)C)cc1` (stereo not shown) [Example 13, 3-(3-{7-Fluoro-1-[isopropyl-(4-methoxy-phenyl)-carbamoylmethyl]-2,4-dioxo-5-pyridin-3-yl-2,3,4,5-tetrahydro-1H-benzo[b][1,4]diazepin-3-yl}-ureido)-benzoic acid] as the compound, how does the Emax at 1 µM read?
Its Emax at 1 µM is 96%.

For `COc1ccc(N(C(=O)CN2C(=O)C(NC(=O)Nc3ccccc3)C(=O)N(c3ccccn3)c3ccccc32)C(C)C)cc1` (stereo not shown) [Example 1, 2-[2,4-Dioxo-3-(3-phenyl-ureido)-5-pyridin-2-yl-2,3,4,5-tetrahydrobenzo[b][1,4]diazepin-1-yl]-N-isopropyl-N-(4-methoxy-phenyl)-acetamide], which Emax at 1 µM is on record?
Its Emax at 1 µM is 91%.

`COc1ccc(N(C(=O)CN2C(=O)C(NC(=O)c3cc4ccccc4[nH]3)C(=O)N(c3ccccn3)c3ccccc32)C(C)C)cc1` (single isomer, unassigned) [Example 3, (+) or (-) 1H-Indole-2-carboxylic acid {1-[Isopropyl-(4-methoxy-phenyl)-carbamoylmethyl]-2,4-dioxo-5-pyridin-2-yl-2,3,4,5-tetrahydro-1H-benzo[b][1,4]diazepin-3-yl}-amide] was tested. Which Emax at 1 µM did it give?
The Emax at 1 µM was 83%.

`COc1ccc(N(C(=O)CN2C(=O)C(NC(=O)c3cc4ccccc4[nH]3)C(=O)N(c3ccncc3)c3ccccc32)C(C)C)cc1` (stereo not shown) [Example 11, 1H-Indole-2-carboxylic acid {1-[Isopropyl-(4-methoxy-phenyl)-carbamoylmethyl]-2,4-indoledioxo-5-pyridin4-yl-2,3,4,5,5a, 9a-hexahydro-1H-benzo[b][1,4]diazepin-3-yl}-amide] was tested. Which Emax at 1 µM did it give?
Its Emax at 1 µM is 67%.

For `COc1ccc(N(C(=O)CN2C(=O)C(NC(=O)c3cc4ccccc4[nH]3)C(=O)N(c3cccnc3)c3ccccc32)C(C)C)cc1` (stereo not shown) [Example 7, 1H-Indole-2-carboxylic acid {1[isopropyl-(4-methoxy-phenyl)-carbamoylmethyl]-2,4-dioxo-5-pyridin-3-yl-2,3,4,5-tetrahydro-1H-benzo[b][1,4]diazepin-3-yl}-amide], which Emax at 1 µM is on record?
The Emax at 1 µM was 77%.

`COc1ccc(N(C(=O)CN2C(=O)C(NC(=O)c3cc4ccccc4[nH]3)C(=O)N(c3ccccn3)c3ccccc32)C(C)C)cc1` (stereo not shown) [Example 2, 1H-Indole-2-carboxylic acid {1-[Isopropyl-(4-methoxy-phenyl)-carbamoylmethyl]-2,4-dioxo-5-pyrdin-2-yl-2,3,4,5-tetrahydro-1H-benzo[b][1,4]diazepin-3-yl}-amide] was tested. Which Emax at 1 µM did it give?
The Emax at 1 µM was 64%.

same assay, conditions: compounds tested at 1 μM, minimum of three determinations

For `COc1ccc(N(C(=O)CN2C(=O)C(NC(=O)c3cc4ccccc4[nH]3)C(=O)N(c3ccccn3)c3ccccc32)C(C)C)cc1` (single isomer, unassigned) [Example 4, (+) or (-) 1H-Indole-2-carboxylic acid {1-[Isopropyl-(4-methoxy-phenyl)-carbamoylmethyl]-2,4-dioxo-5-pyridin-2-yl-2,3,4,5-tetrahydro-1H-benzo[b][1,4]diazepin-3-yl}-amide], which “Contraction (% sulfated CCK-8 maximal response)” value is on record?
The value was 67%.

How did the “Contraction (% sulfated CCK-8 maximal response)” value turn out when `COc1ccc(N(C(=O)CN2C(=O)C(NC(=O)c3cc4ccccc4[nH]3)C(=O)N(c3cccnc3)c3ccccc32)C(C)C)cc1` (single isomer, unassigned) [Example 15, (+) or (-) 1H-Indole-2-carboxylic acid [I-[isopropyl-(4-methoxyphenyl)-carbamoylmethyl]-2,4-dioxo-5-pyridin-3-yl-2,3,4,5-tetrahydro-1H-benzo[b][1,4]diazepin-3-yl]amide] was run?
The value was 93%.
